These are literature values, as cited in patent publication US20250195564A1, “IRON SUPPLEMENT COMPOSITIONS AND METHODS OF USE THEREOF” (ThermoLife International, LLC, priority 2021, published 2025).

For this data set the following is noted: iron supplementation; without supplementation mean 36±11 days.

For the compound `O=S(=O)([O-])[O-].[Fe+2]` [iron sulfate], the “time of hemoglobin recovery after blood donation” value is on record as 32 days.
